Molecular target: PD-1/PD-L1 (Homo sapiens (Human), UniProt Q9NZQ7)
Assay: PD-1/PD-L1 Binding Assay (Alphascreen)
Procedure, shortened: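 PD-1/PD-L1 binding detected by anti-6×His acceptor and streptavidin donor beads after 120 min in the dark at 25 °C. Beforehand, the two proteins were incubated 15 min at 25 °C with inhibitor at 0.015–300 nM (1% DMSO). IC50 comes from a log concentration–response curve.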

PD-1/PD-L1, sequence (Q9NZQ7 19-238): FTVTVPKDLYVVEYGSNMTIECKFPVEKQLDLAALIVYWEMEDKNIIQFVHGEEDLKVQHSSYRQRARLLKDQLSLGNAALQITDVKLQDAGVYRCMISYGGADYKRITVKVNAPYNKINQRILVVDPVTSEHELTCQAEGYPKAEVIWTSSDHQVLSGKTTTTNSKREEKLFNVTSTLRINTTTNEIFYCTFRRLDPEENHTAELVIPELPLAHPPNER

Row | IC50 (range symbols) [nM] | IC50 (numeric values) [nM] | Compound
1 | 5 to 50 |  | Cc1c(-c2cnc(CN3CCCC3)cn2)cccc1-c1cccc(-c2nc3cc(CN4CCC[C@H]4C(=O)O)c(OC(F)F)cc3o2)c1C [Example 284, ((6-(difluoromethoxy)-2-(2,2′-dimethyl-3′-(5-(pyrrolidin-1-ylmethyl)pyrazin-2-yl)-[1,1′-biphenyl]-3-yl)benzo[d]oxazol-5-yl)methyl)-L-proline]
2 |  | 0.3 | Cc1c(Nc2nccc3cc(CNCC(=O)O)cnc23)cccc1-c1cccc(-c2nc3cc(CN4CCC[C@H]4C(=O)O)c(OC(F)F)cc3o2)c1C [Example 172, ((2-(3′-((3-(((carboxymethyl)amino)methyl)-1,7-naphthyridin-8-yl)amino)-2,2′-dimethyl-[1,1′-biphenyl]-3-yl)-6-(difluoromethoxy)benzo[d]oxazol-5-yl)methyl)-L-proline]
3 |  | 0.73 | Cc1c(-c2cnc(CN3CCCC3)c(F)c2)cccc1-c1cccc(-c2nc3cc(CN4CCC[C@H]4C(=O)O)c(OC(F)F)cc3o2)c1C [Example 265, ((6-(difluoromethoxy)-2-(3′-(5-fluoro-6-(pyrrolidin-1-ylmethyl)pyridin-3-yl)-2,2′-dimethyl-[1,1′-biphenyl]-3-yl)benzo[d]oxazol-5-yl)methyl)-L-proline]
4 | 5 to 50 |  | Cc1c(-c2ccc(CN3CCCC3)c(=O)[nH]2)cccc1-c1cccc(-c2nc3cc(CN4CCC[C@H]4C(=O)O)c(OC(F)F)cc3o2)c1C [Example 267, ((6-(difluoromethoxy)-2-(2,2′-dimethyl-3′-(6-oxo-5-(pyrrolidin-1-ylmethyl)-1,6-dihydropyridin-2-yl)-[1,1′-biphenyl]-3-yl)benzo[d]oxazol-5-yl)methyl)-L-proline]
5 |  | 2.3 | Cc1c(-c2ccc(CN3CCC(C)C3)c(F)c2)cccc1-c1cccc(-c2nc3cc(CN4CCC[C@H]4C(=O)O)c(OC(F)F)cc3o2)c1C (stereo partly drawn) [Example 238, ((6-(difluoromethoxy)-2-(3″-fluoro-2,2′-dimethyl-4″-((3-methylpyrrolidin-1-yl)methyl)-[1,1′:3′,1″-terphenyl]-3-yl)benzo[d]oxazol-5-yl)methyl)-L-proline]
6 |  | 11 | Cc1c(-c2nc3cc(CN4CC[C@H](C(=O)O)C4)c(OC(F)F)cc3o2)cccc1-c1cccc(-c2nc3cc(CN4CC(C)(C)C4)c(OC(F)F)cc3o2)c1C [Example 86, (S)-1-((6-(difluoromethoxy)-2-(3′-(6-(difluoromethoxy)-5-((3,3-dimethylazetidin-1-yl)methyl)benzo[d]oxazol-2-yl)-2,2′-dimethyl-[1,1′-biphenyl]-3-yl)benzo[d]oxazol-5-yl)methyl)pyrrolidine-3-carboxylic acid]
7 |  | 2.4 | CCN(CC)C1CN(Cc2cc3nc(-c4cccc(-c5cccc(-c6nc7cc(CN8CCC[C@H]8C(=O)O)c(OC(F)F)cc7o6)c5C)c4C)oc3cc2OC(F)F)C1 [Example 68, ((2-(3′-(5-((3-(diethylamino)azetidin-1-yl)methyl)-6-(difluoromethoxy)benzo[d]oxazol-2-yl)-2,2′-dimethyl-[1,1′-biphenyl]-3-yl)-6-(difluoromethoxy)benzo[d]oxazol-5-yl)methyl)-L-proline]
8 | 0.1 to 5 |  | Cc1c(-c2nc3cc(CN4CCC[C@H]4C(=O)O)c(OC(F)F)cc3o2)cccc1-c1cccc(-c2nc3cc(CN4CC[C@H](C)C4)cc(C#N)c3o2)c1C [Example 130, ((2-(3′-(7-cyano-5-(((S)-3-methylpyrrolidin-1-yl)methyl)benzo[d]oxazol-2-yl)-2,2′-dimethyl-[1,1′-biphenyl]-3-yl)-6-(difluoromethoxy)benzo[d]oxazol-5-yl)methyl)-L-proline]
9 | 0.1 to 5 |  | Cc1c(-c2nc3cc(CN4CCC[C@H]4C(=O)O)c(OC(F)F)cc3o2)cccc1-c1cccc(-c2ccc(CNC[C@@H]3CCC(=O)N3)c(OC(F)F)c2)c1F [Example 216, ((6-(difluoromethoxy)-2-(3″-(difluoromethoxy)-2′-fluoro-2-methyl-4″-(((((S)-5-oxopyrrolidin-2-yl)methyl)amino)methyl)-[1,1′:3′,1″- terphenyl]-3-yl)benzo[d]oxazol-5-yl)methyl)-L-proline]
10 |  | 0.67 | Cc1c(-c2ccc(CNCCO)cc2)cccc1-c1cccc(-c2nc3cc(CN4CCC[C@H]4C(=O)O)c(OC(F)F)cc3o2)c1C [Example 217, ((6-(difluoromethoxy)-2-(4″-(((2-hydroxyethyl)amino)methyl)-2,2′-dimethyl-[1,1′:3′,1″-terphenyl]-3-yl)benzo[d]oxazol-5-yl)methyl)-L-proline]
11 | 0.1 to 5 |  | Cc1c(-c2nc3cc(CN4CC(C)(CO)C4)c(OC(F)F)cc3o2)cccc1-c1cccc(-c2nc3cc(CN4CCC[C@H]4C(=O)O)c(OC(F)F)cc3o2)c1C [Example 78, ((6-(difluoromethoxy)-2-(3′-(6-(difluoromethoxy)-5-((3-(hydroxymethyl)-3-methylazetidin-1-yl)methyl)benzo[d]oxazol-2-yl)-2,2′-dimethyl-[1,1′-biphenyl]-3-yl)benzo[d]oxazol-5-yl)methyl)-L-proline]
12 |  | 2.3 | Cc1c(-c2nc3c(o2)CCN(CC(=O)O)C3)cccc1-c1cccc(-c2nc3cc(CN4CCC[C@H]4C(=O)O)c(OC(F)F)cc3o2)c1C [Example 184, ((2-(3′-(5-(carboxymethyl)-4,5,6,7-tetrahydrooxazolo[4,5-c]pyridin-2-yl)-2,2′-dimethyl-[1,1′-biphenyl]-3-yl)-6-(difluoromethoxy)benzo[d]oxazol-5-yl)methyl)-L-proline]
13 |  | 7.8 | Cc1c(-c2ccc(CN3CCCC3)c(OC(F)(F)F)c2)cccc1-c1cccc(-c2nc3cc(CN4CCC[C@H]4C(=O)O)c(OC(F)F)cc3o2)c1C [Example 232, ((6-(difluoromethoxy)-2-(2,2′-dimethyl-4″- (pyrrolidin-1-ylmethyl)-3″-(trifluoromethoxy)-[1,1′:3′,1″-terphenyl]-3-yl)benzo[d]oxazol-5-yl)methyl)-L-proline]

Further lines, the compound ahead of its results:

Row | Compound | IC50 (range symbols) [nM] | IC50 (numeric values) [nM]
14 | Cc1c(-c2nc3cc(CN4CCC[C@H]4C(=O)O)c(OC(F)F)cc3o2)cccc1-c1cccc(-c2nc3c(F)c(F)c(CN4CCCC4)cc3n2CC(F)(F)F)c1C [Example 300, ((2-(3′-(4,5-difluoro-6-(pyrrolidin-1-ylmethyl)-1-(2,2,2-trifluoroethyl)-1H-benzo[d]imidazol-2-yl)-2,2′-dimethyl-[1,1′-biphenyl]-3-yl)-6-(difluoromethoxy)benzo[d]oxazol-5-yl)methyl)-L-proline] | > 50 | 
15 | Cc1c(-c2nc3cc(CN4CCCC4)c(F)c(F)c3[nH]2)cccc1-c1cccc(-c2nc3cc(CN4CCC[C@H]4C(=O)O)c(OC(F)F)cc3o2)c1C [Example 296] |  | 12
16 | Cc1c(-c2nc3cc(CN4CCC[C@H]4C(=O)O)c(OC(F)F)cc3o2)cccc1-c1cccc(-c2nc3cc(CN4CCC(CN(C)C)C4)cc(C#N)c3o2)c1C (stereo partly drawn) [Example 152, ((2-(3′-(7-cyano-5-((3-((dimethylamino)methyl)pyrrolidin-1-yl)methyl)benzo [d]oxazol-2-yl)-2,2′-dimethyl-[1,1′-biphenyl]-3-yl)-6-(difluoromethoxy)benzo[d]oxazol-5-yl)methyl)-L-proline] | 0.1 to 5 | 
17 | Cc1c(-c2nc3cc(CN4CCC[C@@H]4C(=O)O)c(OC(F)F)cc3o2)cccc1-c1cccc(-c2nc3cc(CN4CC(C)(C)C4)cnc3o2)c1C [Example 170, ((6-(difluoromethoxy)-2-(3′-(6-((3,3-dimethylazetidin-1-yl)methyl)oxazolo[5,4-b]pyridin-2-yl)-2,2′-dimethyl-[1,1′-biphenyl]-3-yl)benzo[d]oxazol-5-yl)methyl)-D-proline] | 5 to 50 | 
18 | Cc1c(-c2nc3cc(CNC[C@@H]4CCC(=O)N4)c(OC(F)F)cc3o2)cccc1-c1cccc(-c2nc3cc(CN4CCC[C@H]4C(=O)O)c(OC(F)F)cc3o2)c1C [Example 19, ((6-(difluoromethoxy)-2-(3′-(6-(difluoromethoxy)-5-(((((S)-5-oxopyrrolidin-2-yl)methyl)amino)methyl)benzo[d]oxazol-2-yl)-2,2′-dimethyl-[1,1′-biphenyl]-3-yl)benzo[d]oxazol-5-yl)methyl)-L-proline] |  | 1.3
19 | Cc1c(-c2nc3cc(CN4CCC[C@H]4C(=O)O)c(OC(F)F)cc3o2)cccc1-c1cccc(-c2nc3cc(CN4CCCC4)c(F)c(F)c3n2C)c1C [Example 298, ((2-(3′-(6,7-difluoro-1-methyl-5-(pyrrolidin-1-ylmethyl)-1H-benzo[d]imidazol-2-yl)-2,2′-dimethyl-[1,1′-biphenyl]-3-yl)-6-(difluoromethoxy)benzo[d]oxazol-5-yl)methyl)-L-proline] | 5 to 50 | 
20 | Cc1c(-c2nc3cc(CN4CCC[C@H]4C(=O)O)c(OC(F)F)cc3o2)cccc1-c1cccc(N2CCC(CN3CC(C)(C)C3)CC2)c1C [Example 308, ((6-(difluoromethoxy)-2-(3′-(4-((3,3-dimethylazetidin-1-yl)methyl)piperidin-1-yl)-2,2′-dimethyl-[1,1′-biphenyl]-3-yl)benzo[d]oxazol-5-yl)methyl)-L-proline] | 0.1 to 5 | 
21 | Cc1c(-c2nc3cc(CN4CCCC4)cc(C#N)c3[nH]2)cccc1-c1cccc(-c2nc3cc(CN4CCC[C@H]4C(=O)O)c(OC(F)F)cc3o2)c1C [Example 295, ((2-(3′-(7-cyano-5-(pyrrolidin-1-ylmethyl)-1H-benzo[d]imidazol-2-yl)-2,2′-dimethyl-[1,1′-biphenyl]-3-yl)-6-(difluoromethoxy)benzo[d]oxazol-5-yl)methyl)-L-proline] | 5 to 50 | 
22 | Cc1c(-c2nc3cc(CN4CCC[C@@H]4C(=O)O)c(OC(F)F)cc3o2)cccc1-c1cccc(-c2ccc(CN3CCCC3)cc2F)c1Cl [Example 224, ((2-(2′-chloro-2″-fluoro-2-methyl-4″- (pyrrolidin-1-ylmethyl)-[1,1′:3′,1″-terphenyl]-3-yl)-6-(difluoromethoxy)benzo[d]oxazol-5-yl)methyl)-D-proline] | 0.1 to 5 | 
23 | Cc1c(-c2nc3cc(CN4CC5CC4C5)c(OC(F)F)cc3o2)cccc1-c1cccc(-c2nc3cc(CN4CCC[C@H]4C(=O)O)c(OC(F)F)cc3o2)c1C [Example 71, ((2-(3′-(5-((2-azabicyclo[2.1.1]hexan-2-yl)methyl)-6-(difluoromethoxy)benzo[d]oxazol-2-yl)-2,2′-dimethyl-[1,1′-biphenyl]-3-yl)-6-(difluoromethoxy)benzo[d]oxazol-5-yl)methyl)-L-proline] |  | 0.37
